test system: two-spotted mite [Tetranychus urticae (Koch)], eggs; experiment: Two-spotted mite acaricidal test, eggs (2SM-E); format: in vivo; conditions: percent of test compound in solution; nymphs hatching from eggs; 5-7 days
Description: (§1) The compounds in Table 1 above were tested for insecticidal activity using the following testing procedures. LC50 values, based on the results of these tests and calculated according to dosage-mortality curves, are expressed in Table 2.
(§2) Acaricidal Evaluation Test
(§3) The two-spotted mite (2SM) [Tetranychus urticae (Koch)]was employed in tests for miticides. The test procedure was as follows:
(§4) Pinto bean plants (Phaseolus sp.), approximately 10 cm tall, were transplanted into sandy loam soil in small cups and thoroughly infested with two-spotted mites of mixed ages and sexes. Twenty-four hours later the infested plants were inverted and dipped for 2-3 seconds in 50--50 acetone-water solutions of the test compound. Treated plants were held in the greenhouse, and 5-7 days later mortality was determined for both adult mites and the nymphs hatching from eggs which were on the plants at the time of treatment. Test concentrations ranged from 0.05% downward. The LC-50 value is expressed below in Table 2 under the headings "2SM-A" (i.e., adults) and "2SM-E" (i.e. eggs) in terms of percent concentration of the test compound in the solution.

Structure (SMILES)	LC50 2-SM E (eggs) [%]
CC(C)(C)c1ccc(N=C(OCc2cccc(Oc3ccc(F)cc3)c2)C2CC2)cc1 [Compound 14]	0.02
FC(F)(F)c1ccc(N=C(OCc2cccc(Oc3ccccc3)c2)C2CC2)cc1 [Compound 6]	> 0.05
FC(F)(F)Oc1ccc(N=C(OCc2cccc(Oc3ccccc3)c2)C2CC2)cc1 [Compound 7]	0.01
Fc1ccc(COC(=Nc2ccc(C(F)(F)F)cc2)C2CC2)cc1Oc1ccccc1 [Compound 15]	< 0.05
Clc1ccc(N=C(OCc2cccc(Oc3ccccc3)c2)C2CC2)cc1 [Compound 4, N-(4-Chlorophenyl)-O-(3-phenoxybenzyl)cyclopropylcarboximidate]	0.05
FC(F)(F)c1ccc(N=C(OCc2cccc(Oc3ccccc3)c2)C2CC2)c(Cl)c1 [Compound 8]	> 0.05
Fc1ccc(N=C(OCc2cccc(Oc3ccccc3)c2)C2CC2)cc1Cl [Compound 10]	> 0.05
FC(F)(F)c1cccc(N=C(OCc2cccc(Oc3ccccc3)c2)C2CC2)c1 [Compound 9]	> 0.05

test system: Tobacco Budworm [Heliothis virescens (Fabricius)], eggs; experiment: Tobacco budworm egg test (TBW-E); format: in vivo; conditions: percent of test compound in solution; 2-day old eggs
Description: (§5) The compounds in Table 1 above were tested for insecticidal activity using the following testing procedures.
(§6) Tobacco Budworm [Heliothis virescens (Fabricius)]
(b). Eggs: Paper towel patches of 2-day old eggs of the tobacco budworm were dipped in acetone solutions of the test compound and placed in petri dishes containing a portion of larval rearing medium. […] Test concentrations ranged from 0.1% downward. The LC-50 value is expressed below in Table 2 under the heading "TBW-E" in terms of percent of the test compound in the solution.

Structure (SMILES)	LC50 TBW E (eggs) [%]
CC(C)(C)c1ccc(N=C(OCc2cccc(Oc3ccc(F)cc3)c2)C2CC2)cc1 [Compound 14]	> 0.1
FC(F)(F)c1ccc(N=C(OCc2cccc(Oc3ccccc3)c2)C2CC2)cc1 [Compound 6]	0.025
FC(F)(F)Oc1ccc(N=C(OCc2cccc(Oc3ccccc3)c2)C2CC2)cc1 [Compound 7]	0.05
Fc1ccc(COC(=Nc2ccc(C(F)(F)F)cc2)C2CC2)cc1Oc1ccccc1 [Compound 15]	0.017
Clc1ccc(N=C(OCc2cccc(Oc3ccccc3)c2)C2CC2)cc1 [Compound 4, N-(4-Chlorophenyl)-O-(3-phenoxybenzyl)cyclopropylcarboximidate]	0.1
FC(F)(F)c1ccc(N=C(OCc2cccc(Oc3ccccc3)c2)C2CC2)c(Cl)c1 [Compound 8]	> 0.1
Fc1ccc(N=C(OCc2cccc(Oc3ccccc3)c2)C2CC2)cc1Cl [Compound 10]	0.1
FC(F)(F)c1cccc(N=C(OCc2cccc(Oc3ccccc3)c2)C2CC2)c1 [Compound 9]	> 0.1

test system: Tobacco Budworm [Heliothis virescens (Fabricius)], larvae; experiment: Tobacco budworm contact test, larvae (TBW-C); format: in vivo; conditions: percent of test compound in solution; second-instar larvae; 5 days
Description: as §1, §6
(a) Contact: Test compounds were diluted in a 50--50 acetonewater solution. Cotton (Gossypium sp.) cotyledons were immersed in the test solutions for 2-3 seconds and placed on a wire screen to dry. The dried leaves were placed in petri dishes containing a moistened piece of filter paper and infested with 5 second-instar tobacco budworm larvae. The dishes were placed in a high humidity chamber for 5 days, and percent mortality of the larvae recorded. Test concentrations ranged from 0.1% downward. The LC-50 values are expressed below in Table 2 under the heading "TBW-C" in terms of percent of the test compound in the solution.

Structure (SMILES)	LC50 TBW C (contact) [%]
FC(F)(F)c1ccc(N=C(OCc2cccc(Oc3ccccc3)c2)C2CC2)cc1 [Compound 6]	0.0015
FC(F)(F)Oc1ccc(N=C(OCc2cccc(Oc3ccccc3)c2)C2CC2)cc1 [Compound 7]	0.001
Clc1ccc(N=C(OCc2cccc(Oc3ccccc3)c2)C2CC2)cc1 [Compound 4, N-(4-Chlorophenyl)-O-(3-phenoxybenzyl)cyclopropylcarboximidate]	0.006
FC(F)(F)c1ccc(N=C(OCc2cccc(Oc3ccccc3)c2)C2CC2)c(Cl)c1 [Compound 8]	0.1

test system: two-spotted mite [Tetranychus urticae (Koch)], adults; experiment: Two-spotted mite acaricidal test, adults (2SM-A); format: in vivo; conditions: percent of test compound in solution, 5-7 days
Description: as §1, §2, §3, §4

Structure (SMILES)	LC50 2-SM A (adults) [%]
CC(C)(C)c1ccc(N=C(OCc2cccc(Oc3ccc(F)cc3)c2)C2CC2)cc1 [Compound 14]	0.02
FC(F)(F)c1ccc(N=C(OCc2cccc(Oc3ccccc3)c2)C2CC2)cc1 [Compound 6]	0.01
FC(F)(F)Oc1ccc(N=C(OCc2cccc(Oc3ccccc3)c2)C2CC2)cc1 [Compound 7]	0.01
Fc1ccc(COC(=Nc2ccc(C(F)(F)F)cc2)C2CC2)cc1Oc1ccccc1 [Compound 15]	< 0.05
Clc1ccc(N=C(OCc2cccc(Oc3ccccc3)c2)C2CC2)cc1 [Compound 4, N-(4-Chlorophenyl)-O-(3-phenoxybenzyl)cyclopropylcarboximidate]	0.01
FC(F)(F)c1ccc(N=C(OCc2cccc(Oc3ccccc3)c2)C2CC2)c(Cl)c1 [Compound 8]	> 0.05
Fc1ccc(N=C(OCc2cccc(Oc3ccccc3)c2)C2CC2)cc1Cl [Compound 10]	> 0.05
FC(F)(F)c1cccc(N=C(OCc2cccc(Oc3ccccc3)c2)C2CC2)c1 [Compound 9]	> 0.05

test system: Housefly [Musca domestica]; experiment: Housefly insecticidal test (HF); format: in vivo; conditions: per 25 female houseflies; mortality at 48 hours
Description: as §1
Housefly [Musca domestica]
The test compound was diluted in acetone and aliquots pipetted onto the bottom of aluminum dishes. To ensure even spreading of the chemical on the bottom of the dishes, 1 ml of acetone containing 0.01% peanut oil was also added to each dish. After all solvents had evaporated, the dishes were placed in circular cardboard cages containing 25 female houseflies, 1-2 days old. The cages were covered on the bottom with cellophane and on the top with tulle netting, and each contained a sugar-water saturated cotton plug for maintenance of the flies. Mortality was recorded after 48 hours. Test levels ranged from 100 μg/25 female houseflies downward. The LC-50 value is expressed below in Table 2 under the heading "HF", in terms of μg of the test compound per 25 female flies.

Structure (SMILES)	LC50 HF [µg]
CC(C)(C)c1ccc(N=C(OCc2cccc(Oc3ccc(F)cc3)c2)C2CC2)cc1 [Compound 14]	> 100

test system: Maize weevil (Sitophilus zeamais [Motschulsky]); experiment: Maize weevil test on treated corn seeds; format: in vivo; conditions: 0.01% test solution, 48 hours, about 25° C.
Description: Maize weevil (Sitophilus zeamais [Motschulsky])
Test compounds were diluted in a 50:50 acetone:water solution to a concentration of 0.01%. Four corn seeds [Zea mays, (L.)]which had been immersed in test solutions for 2-3 seconds and allowed to dry were placed in covered containers at a temperature of about 25° C. Mortality was recorded after 48 hours.

Structure (SMILES)	mortality at 0.01 % [%]
Fc1ccc(COC(=Nc2ccc(C(F)(F)F)cc2)C2CC2)cc1Oc1ccccc1 [Compound 15]	50

test system: Western Spotted Cucumber Beetle Larvae [Diabrotica undecimpunctata undecimpunctata (Mannherheim)]; experiment: Western spotted cucumber beetle larvae soil test (Diabrotica); format: in vivo; conditions: ppm of test compound in the soil
Description: as §1
Western Spotted Cucumber Beetle Larvae[Diabrotica undecimpunctata undecimpunctata (Mannherheim)]
Ten grams of moist potting soil was placed in a plastic cup. The test compound was dissolved in acetone. A 0.05 ml aliquot of the test sample, diluted to the desired concentration, was added to the soil. The cup was capped and the soil was mixed on a vortex mixer for approximately 15 seconds. An indentation was made on the surface of the soil and approximately 50 Diabrotica eggs were added. The eggs were covered with soil and maintained at room temperature (approximately 70° F. or 21° C.). Four days later a section of Romaine lettuce (Latuca sativa) leaf was placed in the treated cups. One week later the cups were examined for live larvae. TEst concentrations ranged from 25 ppm downward. The LC-50 value is expressed below in Table 2 under the heading "Diabrotica" in terms of ppm of the test compound in the soil.

Structure (SMILES)	LC50 Diabrotica
CC(C)(C)c1ccc(N=C(OCc2cccc(Oc3ccc(F)cc3)c2)C2CC2)cc1 [Compound 14]	> 25 ppm (soil)
FC(F)(F)c1ccc(N=C(OCc2cccc(Oc3ccccc3)c2)C2CC2)cc1 [Compound 6]	25 ppm (soil)
FC(F)(F)Oc1ccc(N=C(OCc2cccc(Oc3ccccc3)c2)C2CC2)cc1 [Compound 7]	17 ppm (soil)
Fc1ccc(COC(=Nc2ccc(C(F)(F)F)cc2)C2CC2)cc1Oc1ccccc1 [Compound 15]	> 25 ppm (soil)
Clc1ccc(N=C(OCc2cccc(Oc3ccccc3)c2)C2CC2)cc1 [Compound 4, N-(4-Chlorophenyl)-O-(3-phenoxybenzyl)cyclopropylcarboximidate]	> 25 ppm (soil)
FC(F)(F)c1ccc(N=C(OCc2cccc(Oc3ccccc3)c2)C2CC2)c(Cl)c1 [Compound 8]	25 ppm (soil)
Fc1ccc(N=C(OCc2cccc(Oc3ccccc3)c2)C2CC2)cc1Cl [Compound 10]	> 25 ppm (soil)
FC(F)(F)c1cccc(N=C(OCc2cccc(Oc3ccccc3)c2)C2CC2)c1 [Compound 9]	> 25 ppm (soil)

test system: Cabbage Looper [Trichoplusia ni (Hubner)]; experiment: Cabbage looper test (CL); format: in vivo; conditions: percent of test compound in solution; second-instar larvae; 3-5 days
Description: as §5
Cabbage Looper [Trichoplusia ni (Hubner)]
The test compound was diluted in a 50--50 acetone-water solution. Cotyledons of hyzini squash (Calabacita abobrinha), approximately 1×1.5 inches, were immersed in the test solutions for 2-3 seconds and placed on a wire screen to dry. The dried leaves were placed in petri dished containing a moistened piece of filter paper and infested with 5 secondinstar cabbage looper larvae. The dished were placed in a high humidity chamber. Mortality of the larvae was recorded 3-5 days later. Test concentrations ranged from 0.1% downward. The LC-50 value is expressed below in Table 2 under the heading "CL" in terms of percent of the test compound in solution.

Structure (SMILES)	LC50 CL [%]
CC(C)(C)c1ccc(N=C(OCc2cccc(Oc3ccc(F)cc3)c2)C2CC2)cc1 [Compound 14]	0.017

test system: Black Bean Aphid [Aphis fabae (Scop.)]; experiment: Black bean aphid insecticidal test (BBA), foliar spray; format: in vivo; conditions: percent of test compound in sprayed solution; 48 hours
Description: as §5

Structure (SMILES)	LC50 BBA [%]
FC(F)(F)c1cccc(N=C(OCc2cccc(Oc3ccccc3)c2)C2CC2)c1 [Compound 9]	> 0.05

test system: Aster Leafhopper [Macrosteles fascifrens (Stal)]; experiment: Contact residue assay on the aster leafhopper (LH); format: in vivo; conditions: percent of test compound in solution; adults/nymphs; 48 hours
Description: as §1
Contact Residue Assay on the Aster Leafhopper [Macrosteles fascifrens (Stal)]
Oat seedlings (Avena sp) were grown in a commercial potting soil in cups. When the plants were approximately 10 cm tall they were thinned to three plants per cup and dipped for 2-3 seconds in 50--50 acetone-water solutions of the test compounds. When the plants had dried, a clear plastic tube was placed over them and the bottom end pressed into the cup. Ten aster leafhopper adults/nymphs were then placed in each tube and the tops of the tubes covered with white organdy cloth. Mortality counts were made after 48 hours. Test concentrations ranged from 0.05% down to that at which 50% mortality occurred. The LC50 values are expressed below in Table 2 under the heading "LH" in terms of the percent of the test compound in the solution.

Structure (SMILES)	LC50 LH [%]
CC(C)(C)c1ccc(N=C(OCc2cccc(Oc3ccc(F)cc3)c2)C2CC2)cc1 [Compound 14]	> 0.05
